Data reported in patent US6951855B2, “Benzoxazinone derivatives for use in the treatment of angiogenesis” (AstraZeneca AB, priority 2001, dated 2005).

| SMILES | melting point [°C] |
| --- | --- |
| O=C1COc2cc(SCc3ccc(O)cc3)ccc2N1 [Example 13, 7-(4-Hydroxybenzylsulfanyl)-2H-1,4-benzoxazin-3(4H)-one] | 207 to 209 |
| CC(=O)Nc1ccc(Oc2ccc3c(c2)OCC(=O)N3)cc1 [Example 19, 7-(4-Acetylaminophenoxy)-2H-1,4-benzoxazin-3(4H)-one] | 230 to 232 |
| O=C1COc2cc(Oc3ccc(O)cc3)ccc2N1 [Example 2, 7-(4-Hydroxyphenoxy)-2H-1,4-benzoxazin-3(4H)-one] | 250 to 251 |
| Nc1ccccc1Sc1ccc2c(c1)OCC(=O)N2 [Example 4, 7-[(2-Aminophenyl)sulfanyl]-2H-1,4-benzoxazin-3(4H)-one] | 204 to 205 |
| O=C1COc2cc(SCc3ccccc3)ccc2N1 [Example 9, 7-Benzylsulfanyl-2H-1,4-benzoxazin-3(4H)-one] | 154 to 155 |
| O=C1COc2cc(Nc3ccc(O)cc3)ccc2N1 [Example 15, 7-(4-Hydroxyanilino)-2H-1,4-benzoxazin-3(4H)-one] | 270 to 275 |
| O=C1COc2cc(Sc3ccc(O)c(O)c3)ccc2N1 [Example 8, 7-[(3,4-Dihydroxyphenyl)sulfanyl]-2H-1,4-benzoxazin-3(4H)-one] | 236 to 238 |
| COc1ccc(Sc2ccc3c(c2)OCC(=O)N3)cc1OC [Example 7, 7-[(3,4-Dimethoxyphenyl)sulfanyl]-2H-1,4-benzoxazin-3(4H)-one] | 170 to 171 |
| Nc1ccccc1Oc1ccc2c(c1)OCC(=O)N2 [Example 18, 7-(2-Aminophenoxy)-2H-1,4-benzoxazin-3(4H)-one] | 149 to 150 |
| Nc1ccc(Sc2ccc3c(c2)OCC(=O)N3)cc1 [Example 3, 7-[(4-Aminophenyl)sulfanyl]-2H-1,4-benzoxazin-3(4H)-one] | 232 to 234 |
| Nc1cccc(Sc2ccc3c(c2)OCC(=O)N3)c1 [Example 5, 7-[(3-Aminophenyl)sulfanyl]-2H-1,4-benzoxazine-3(4H)-one] | 181 to 182 |
| COc1ccc(Oc2ccc3c(c2)OCC(=O)N3)cc1 [Example 1, 7-(4-Methoxyphenoxy)-2H-1,4-benzoxazin-3(4H)-one] | 163 to 164 |
| COc1ccc(Nc2ccc3c(c2)OCC(=O)N3)cc1 [Example 14, 7-(4-Methoxyanilino)-2H-1,4-benzoxazin-3(4H)-one] | 174 to 175 |
| O=C1COc2cc(Sc3ccc(O)cc3)ccc2N1 [Example 6, 7-[(4-Hydroxyphenyl)sulfanyl]-2H-1,4-benzoxazin-3(4H)-one] | 224 to 225 |
| Nc1cccc(Oc2ccc3c(c2)OCC(=O)N3)c1 [Example 17, 7-(3-Aminophenoxy)-2H-1,4-benzoxazin-3(4H)-one] | 209 to 210 |
